The target of this assay is T1, His-hMAGL (recombinant polyhistidine tagged human MAGL protein) (Homo sapiens, UniProt Q99685).
T1 construct: made in house; host or cells: E. coli BL21(DE3)
T1 sequence (Q99685 1-303): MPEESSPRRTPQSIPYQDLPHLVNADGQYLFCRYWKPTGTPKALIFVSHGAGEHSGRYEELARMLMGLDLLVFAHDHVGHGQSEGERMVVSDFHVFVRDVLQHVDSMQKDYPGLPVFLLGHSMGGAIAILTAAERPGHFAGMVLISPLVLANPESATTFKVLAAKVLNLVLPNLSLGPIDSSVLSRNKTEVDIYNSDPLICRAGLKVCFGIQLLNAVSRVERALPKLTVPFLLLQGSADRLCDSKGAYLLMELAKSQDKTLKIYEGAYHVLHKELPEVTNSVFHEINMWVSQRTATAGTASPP
Put plainly: Measurement of MAGL inhibitory activity (arachidonic acid production from 2-arachidonylglycerol, RapidFire-mass spectrometry). The assay is classed as biochemical. As to conditions: MAGL inhibitory rate, test compound 10 μM, 60 min preincubation, 2-arachidonylglycerol substrate. In a few lines: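 Arachidonic acid formed was quantified by online solid-phase extraction and triple-quadrupole MS in negative SRM mode against a d8 internal standard. Reaction: recombinant His-hMAGL (7.5 ng/mL, pH 7.5 Tris buffer with Triton X-100 and BSA) plus 2-AG (5 μL of 150 μM stock) for 10 min at room temperature, quenched with 2% formic acid. Percent inhibition corrected for enzyme-free background.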

SMILES strings stand for the structures.

Consider `Cc1ccc(-c2ccc3c(Cl)c(C(=O)N4CC5(CCC(=O)N5)C4)sc3c2)s1` [Example 232, 2-((3-chloro-6-(5-methyl-2-thienyl)-1-benzothiophen-2-yl)carbonyl)-2,5-diazaspiro[3.4]octan-6-one], for which the inhibition (in general, the drop in the measured response relative to a control, in per cent) at 10 µM came to 99%.

Take `Cc1cc(-c2ccc3c(Cl)c(C(=O)N4CC5(CCC(=O)N5)C4)sc3c2)c(C)s1` [Example 233, 2-((3-chloro-6-(2,5-dimethyl-3-thienyl)-1-benzothiophen-2-yl)carbonyl)-2,5-diazaspiro[3.4]octan-6-one]: the inhibition at 10 µM stood at 101%.

For `Cc1sccc1-c1ccc2c(Cl)c(C(=O)N3CC4(CCC(=O)N4)C3)sc2c1` [Example 234, 2-((3-chloro-6-(2-methyl-3-thienyl)-1-benzothiophen-2-yl)carbonyl)-2,5-diazaspiro[3.4]octan-6-one], the inhibition at 10 µM came out at 101%.

For the compound `Cc1ccsc1-c1ccc2c(Cl)c(C(=O)N3CC4(CCC(=O)N4)C3)sc2c1` [Example 235, 2-((3-chloro-6-(3-methyl-2-thienyl)-1-benozthiophen-2-yl)carbonyl)-2,5-diazaspiro[3.4]octan-6-one], the inhibition at 10 µM stood at 100%.

For the compound `Cc1cscc1-c1ccc2c(Cl)c(C(=O)N3CC4(CCC(=O)N4)C3)sc2c1` [Example 236, 2-((3-chloro-6-(4-methyl-3-thienyl)-1-benzothiophen-2-yl)carbonyl)-2,5-diazaspiro[3.4]octan-6-one], the inhibition at 10 µM is 100%.

As for `O=C1CCC2(CN(C(=O)N3CCC(C(F)(c4ccccc4)c4ccccc4)CC3)C2)N1` [Example 237, 2-((4-(fluoro(diphenyl)methyl)piperidin-1-yl)carbonyl)-2,5-diazaspiro[3.4]octan-6-one], the inhibition at 10 µM was determined as 101%.

Regarding `O=C1CCC2(CN(C(=O)c3sc4cc(C(F)(F)F)ccc4c3F)C2)N1` [Example 238, 2-((3-fluoro-6-(trifluoromethyl)-1-benzothiophen-2-yl)carbonyl)-2,5-diazaspiro[3.4]octan-6-one], the inhibition at 10 µM was determined as 97%.

On to `O=C1CCC2(CN(C(=O)N3CCC(COc4ccc5c(c4)CCCC5)CC3)C2)N1` [Example 239, 2-((4-((5,6,7,8-tetrahydronaphthalen-2-yloxy)methyl)piperidin-1-yl)carbonyl)-2,5-diazaspiro[3.4]octan-6-one], for which the inhibition at 10 µM was 101%.

`O=C1NC2(CO1)CN(C(=O)N1CCC(COc3ccc(F)cc3Cl)CC1)C2` [Example 240, 2-((4-((2-chloro-4-fluorophenoxy)methyl)piperidin-1-yl)carbonyl)-7-oxa-2,5-diazaspiro[3.4]octan-6-one]: the inhibition at 10 µM is 100%.

Consider `O=C1NC2(CO1)CN(C(=O)c1sc3cc(C(F)(F)F)ccc3c1Cl)C2` [Example 241, 2-((3-chloro-6-(trifluoromethyl)-1-benzothiophen-2-yl)carbonyl)-7-oxa-2,5-diazaspiro[3.4]octan-6-one], for which the inhibition at 10 µM was determined as 101%.

As to `O=C1COCC2(CN(C(=O)c3sc4cc(C(F)(F)F)ccc4c3Cl)C2)N1` [Example 242, 2-((3-chloro-6-(trifluoromethyl)-1-benzothiophen-2-yl)carbonyl)-8-oxa-2,5-diazaspiro[3.5]nonan-6-one], the inhibition at 10 µM was determined as 99%.

Regarding `O=C1COCC2(CN(C(=O)N3CCC(COc4ccc(F)cc4Cl)CC3)C2)N1` [Example 243, 2-((4-((2-chloro-4-fluorophenoxy)methyl)piperidin-1-yl)carbonyl)-8-oxa-2,5-diazaspiro[3.5]nonan-6-one], the inhibition at 10 µM turned out to be 100%.

With `O=C1CCC2(CN(C(=O)N3CCC(C(F)(F)c4ccc(Cl)cc4Cl)CC3)C2)N1` [Example 244, 2-((4-((2,4-dichlorophenyl)(difluoro)methyl)piperidin-1-yl)carbonyl)-2,5-diazaspiro[3.4]octan-6-one], the inhibition at 10 µM stood at 100%.

As to `O=C1CCC2(CN(C(=O)c3sc4cc(Br)ccc4c3C3CC3)C2)N1` [Example 245, 2-((6-bromo-3-cyclopropyl-1-benzothiophen-2-yl)carbonyl)-2,5-diazaspiro[3.4]octan-6-one], the inhibition at 10 µM was 98%.

Take `O=C1CCC2(CN(C(=O)c3sc(-c4cccc(C5(C(F)(F)F)CC5)c4)cc3Cl)C2)N1` [Example 246, 2-((3-chloro-5-(3-(1-(trifluoromethyl)cyclopropyl)phenyl)-2-thienyl)carbonyl)-2,5-diazaspiro[3.4]octan-6-one]: the inhibition at 10 µM was 100%.

For `O=C1CCC2(CN(C(=O)c3sc(-c4ccc(C5(C(F)(F)F)CC5)cc4)cc3Cl)C2)N1` [Example 247, 2-((3-chloro-5-(4-(1-(trifluoromethyl)cyclopropyl)phenyl)-2-thienyl)carbonyl)-2,5-diazaspiro[3.4]octan-6-one], the inhibition at 10 µM is 100%.

As to `O=C1CCC2(CN(C(=O)c3sc(-c4cccc(OC(F)(F)F)c4)cc3Cl)C2)N1` [Example 248, 2-((3-chloro-5-(3-(trifluoromethoxy)phenyl)-2-thienyl)carbonyl)-2,5-diazaspiro[3.4]octan-6-one], the inhibition at 10 µM amounted to 95%.

On to `O=C1CCC2(CN(C(=O)c3sc(-c4ccc(OC(F)(F)F)cc4)cc3Cl)C2)N1` [Example 249, 2-((3-chloro-5-(4-(trifluoromethoxy)phenyl)-2-thienyl)carbonyl)-2,5-diazaspiro[3.4]octan-6-one], for which the inhibition at 10 µM turned out to be 93%.

`O=C1CCC2(CN(C(=O)c3cc4cc(Br)ccc4s3)C2)N1` [Example 250, 2-((5-bromo-1-benzothiophen-2-yl)carbonyl)-2,5-diazaspiro[3.4]octan-6-one]: the inhibition at 10 µM was found to be 86%.

For `O=C1CCC2(CN(C(=O)c3sc4cc(OC(F)(F)F)cc(F)c4c3Cl)C2)N1` [Example 251, 2-((3-chloro-4-fluoro-6-(trifluoromethoxy)-1-benzothiophen-2-yl)carbonyl)-2,5-diazaspiro[3.4]octan-6-one], the inhibition at 10 µM was 99%.

`O=C1CCC2(CN(C(=O)c3cc4cc(OC(F)(F)F)ccc4s3)C2)N1` [Example 252, 2-((5-(trifluoromethoxy)-1-benzothiophen-2-yl)carbonyl)-2,5-diazaspiro[3.4]octan-6-one]: the inhibition at 10 µM came out at 98%.

Turning to `O=C1CCC2(CN(C(=O)c3sc4ccc(OC(F)(F)F)cc4c3Cl)C2)N1` [Example 253, 2-((3-chloro-5-(trifluoromethoxy)-1-benzothiophen-2-yl)carbonyl)-2,5-diazaspiro[3.4]octan-6-one], the inhibition at 10 µM is 99%.

Consider `O=C1CCC2(CN(C(=O)c3sc4c(C(F)(F)F)cccc4c3Cl)C2)N1` [Example 255, 2-((3-chloro-7-(trifluoromethyl)-1-benzothiophen-2-yl)carbonyl)-2,5-diazaspiro[3.4]octan-6-one], for which the inhibition at 10 µM came out at 99%.

As for `O=C1CCC2(CN(C(=O)c3sc4ccc(C(F)(F)F)cc4c3Cl)C2)N1` [Example 256, 2-((3-chloro-5-(trifluoromethyl)-1-benzothiophen-2-yl)carbonyl)-2,5-diazaspiro[3.4]octan-6-one], the inhibition at 10 µM worked out at 99%.

`O=C1NC2(CO1)CN(C(=O)c1sc3c(C(F)(F)F)cccc3c1Cl)C2` [Example 257, 2-((3-chloro-7-(trifluoromethyl)-1-benzothiophen-2-yl)carbonyl)-7-oxa-2,5-diazaspiro[3.4]octan-6-one]: the inhibition at 10 µM is 100%.

Turning to `O=C1NC2(CO1)CN(C(=O)c1sc3ccc(C(F)(F)F)cc3c1Cl)C2` [Example 258, 2-((3-chloro-5-(trifluoromethyl)-1-benzothiophen-2-yl)carbonyl)-7-oxa-2,5-diazaspiro[3.4]octan-6-one], the inhibition at 10 µM was 100%.

For `O=C1NC2(CO1)CN(C(=O)c1sc3cc(OC(F)F)ccc3c1Cl)C2` [Example 259, 2-((3-chloro-6-(difluoromethoxy)-1-benzothiophen-2-yl)carbonyl)-7-oxa-2,5-diazaspiro[3.4]octan-6-one], the inhibition at 10 µM worked out at 101%.

Regarding `O=C1CCC2(CN(C(=O)c3sc4cc(OC(F)F)ccc4c3Cl)C2)N1` [Example 260, 2-((3-chloro-6-(difluoromethoxy)-1-benzothiophen-2-yl)carbonyl)-2,5-diazaspiro[3.4]octan-6-one], the inhibition at 10 µM came to 100%.

`O=C1NC2(CO1)CN(C(=O)c1sc3cc(OC(F)(F)F)ccc3c1C(F)(F)F)C2` [Example 261, 2-((6-(trifluoromethoxy)-3-(trifluoromethyl)-1-benzothiophen-2-yl)carbonyl)-7-oxa-2,5-diazaspiro[3.4]octan-6-one]: the inhibition at 10 µM is 100%.

Turning to `O=C1NC2(CO1)CN(C(=O)c1sc3ccc(OC(F)(F)F)cc3c1Cl)C2` [Example 262, 2-((3-chloro-5-(trifluoromethoxy)-1-benzothiophen-2-yl)carbonyl)-7-oxa-2,5-diazaspiro[3.4]octan-6-one], the inhibition at 10 µM turned out to be 101%.

Turning to `O=C1CCC2(CN(C(=O)c3sc4cc(OC(F)(F)F)ccc4c3C(F)(F)F)C2)N1` [Example 263, 2-((6-(trifluoromethoxy)-3-(trifluoromethyl)-1-benzothiophen-2-yl)carbonyl)-2,5-diazaspiro[3.4]octan-6-one], the inhibition at 10 µM is 98%.

With `O=C1NC2(CO1)CN(C(=O)c1sc3cc(OC(F)(F)F)ccc3c1C(F)F)C2` [Example 264, 2-((3-(difluoromethyl)-6-(trifluoromethoxy)-1-benzothiophen-2-yl)carbonyl)-7-oxa-2,5-diazaspiro[3.4]octan-6-one], the inhibition at 10 µM came to 100%.

These data come from patent US10610520B2, “Heterocyclic compound” (Takeda Pharmaceutical Company Limited, priority 2016, dated 2020).
